Where two headings read alike, the source gives them in different places. Each block holds one compound with its values, some of them ahead of it.
Assays:
pol κ = details: cited from earlier work
mouse pol ι = test system: mouse pol ι; design: method as in PMID 19223184; details: read-out: IC50 against pol ι; cited from earlier work
pol α = test system: pol α; design: method as in PMID 20599777; details: cited from earlier work
[1] = biological target: T1, Human pol κ (residues 19–526) (Homo sapiens, UniProt Q9UBT6); assay: qHTS fluorescence-based DNA strand displacement assay; assay type: biochemical
T1 construct: Human pol κ (residues 19–526) was purified as previously reported; made in house
T1 sequence (Q9UBT6 19-526): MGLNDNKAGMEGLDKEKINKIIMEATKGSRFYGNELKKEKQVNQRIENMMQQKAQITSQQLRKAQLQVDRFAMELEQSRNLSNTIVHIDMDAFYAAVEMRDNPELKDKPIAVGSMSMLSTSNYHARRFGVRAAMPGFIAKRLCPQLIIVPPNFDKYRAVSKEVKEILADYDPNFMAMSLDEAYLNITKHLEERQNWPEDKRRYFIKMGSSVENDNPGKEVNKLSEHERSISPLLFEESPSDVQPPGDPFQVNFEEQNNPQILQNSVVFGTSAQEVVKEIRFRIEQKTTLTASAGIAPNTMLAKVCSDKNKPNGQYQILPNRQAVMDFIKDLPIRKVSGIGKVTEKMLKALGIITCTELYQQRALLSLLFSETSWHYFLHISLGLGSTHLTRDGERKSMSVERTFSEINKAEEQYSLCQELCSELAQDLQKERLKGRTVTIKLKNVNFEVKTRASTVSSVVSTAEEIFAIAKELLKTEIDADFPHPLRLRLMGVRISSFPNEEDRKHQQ
Experimental: The substrate used in qHTS was made by the annealing of unlabeled oligodeoxynucleotide primer (5′-TCACCCTCGTACGACTC-3′) and TAMRA-labeled reporter strand (5′-TTTTTTTTTTGC-6-TAMRA-3′) to oligodeoxynucleotide template labeled with BHQ-2 (5′-BHQ-2-[…]-3′) as originally described by Dorjsuren et al.. The annealing mixture of unlabeled primer, TAMRA-labeled reporter, and BHQ-2-labeled template in buffer containing 50 mM Tris-HCl, pH 8.0, 100 mM NaCl, and 5 mM MgCl2 was heated at 95°C for 5 min and allowed to cool gradually to room temperature. The substrate was then stored at −20°C as 50 µM stock.
qHTS was performed in 50 mM Tris-HCI, pH 8.0, 40 mM NaCl, 1 mM MgCl2, 0.01% Tween-20, 2 mM DTT, and 100 µM dTTP. 3 µL of reagents (buffer as negative control and pol κ in the remaining plate at 10 nM final concentration) were dispensed by Flying Reagent Dispenser™ (FRD) (Beckman Coulter, Inc., Fullerton, CA) into a 1,536-well plate. Compounds were delivered as 23 nL in DMSO solution via pintool transfer; vehicle-only control consisted of 23 nL DMSO. The plate was incubated for 15 min at room temperature, and then 1 µL of substrate (50 nM final concentration) was added to initiate the reaction. The plate was immediately transferred into ViewLux reader for kinetic fluorescence data collection.
To lay the foundation for the methodologies to discover and characterize inhibitors of pol κ, we used a fluorescent reporter strand displacement assay (Figure 1 and [27]). The library of bioactive small molecules was tested as seven-point dilution series, with the final concentrations ranging from 2.9 nM to 57 µM.

Human pol κ [2] = biological target: T2, Human pol κ (Homo sapiens, UniProt Q9UBT6); assay: Radioactive gel-based primer extension assay on non-damaged DNA, pol κ; assay type: biochemical
T2 construct: Human pol κ (residues 19–526) was purified as previously reported; made in house
T2 sequence (Q9UBT6 19-526): T1 sequence (Q9UBT6 19-526)
Experimental: (§1) The reactions with pol κ, pol η, and pol ι were carried out in the buffers containing 25 mM Tris-HCl, pH 7.5, 8 mM MgCl2, 10% glycerol, 100 µg/mL bovine serum albumin, and 5 mM DTT. Buffers for pol δ reactions contained 40 mM Hepes-KOH, pH 6.8, 10% glycerol, 200 µg/mL bovine serum albumin, 1 mM DTT, and 8 mM MgCl2. Final concentration of pol κ, pol η, pol ι, or pol δ in the reaction was 0.25 nM, 1 nM, 2.5 nM, or 4 nM, respectively. In this assay, a polymerase was preincubated with the compound for 15 min at room temperature. Primer extensions were then initiated by the addition of DNA substrate at final concentration of 5 nM and carried out for 30 min at room temperature in the presence of 100 µM dCTP and dGTP. The reactions were terminated by the addition of an equal volume of a dye solution containing 95% (v/v) formamide, 10 mM EDTA, 0.03% (w/v) xylene cyanol, and 0.03% (w/v) bromphenol blue. Reaction products were separated through a 15% acrylamide gel containing 8 M urea and visualized with a PhosphorImager screen. The ratio of extended primer to the total amount of primer was measured using ImageQuant 5.2 software to calculate the percentage of primer extended. IC50 values were determined by fitting the data to variable slope four-parameter equations using GraphPad Prism 5.

Human pol κ [3] = biological target: T2, Human pol κ; assay: Radioactive gel-based primer extension (TLS) past acrolein-derived ring-opened reduced form of γ-HOPdG, pol κ; assay type: biochemical
Experimental: as §1
The primary role of pol κ is to bypass DNA lesions. Therefore, it was critical to establish the assays to investigate the capability of these compounds to inhibit lesion bypass activity of pol κ. Radioactive gel-based primer extension reactions were carried out using a DNA substrate containing a site-specific acrolein-derived ring-opened reduced form of γ-HOPdG, a lesion that pol κ can efficiently bypass in vitro [13].

XP30RO cells (XP-V) = assay: Cell survival assay, crystal violet, with or without UV; details: crystal violet; inhibitor 6 h then UV 1.5, 4.5 or 7.5 J/m^2; candesartan cilexetil 24 µM
Experimental: Cell survival assays were carried out using crystal violet assays and CellTiter-Glo Luminescent Cell Viability Assays. In crystal violet assays, XP30RO cells were plated into clear 96-well plates at a density of 8000 cells/mL and incubated overnight at 37°C, 5% CO2. The cells were treated with (1) inhibitor alone for 6 h or (2) UV alone or (3) inhibitor alone for 6 h followed by UV irradiation. After 2 days, cells were fixed with 4% paraformaldehyde and stained with 0.5% crystal violet dye. The dye was dissolved in 10% acetic acid and absorbance measurement was taken at OD595 nm with Infinite® M200 plate reader (Tecan, Durham, NC). For the CellTiter-Glo Luminescent Cell Viability Assays, the same procedures as crystal violet assays were used except that white/clear bottom 96-well plates were used and cell viability was measured following manufacturer's recommendations.
XP30RO cells were treated with 24 µM of candesartan cilexetil alone, UV alone at 1.5 J/m^2, 4.5 J/m^2, or 7.5 J/m^2, or in combination. Percent survival was calculated by normalizing the data using the cell survival of untreated cells. The data were obtained from three independent experiments.

[4] = test system: double-stranded DNA ladder; assay: DNA intercalation assay (agarose gel shift of DNA ladder); assay type: binding; details: 0.75 or 3 nmol compound with 1.5 nmol DNA, 1% agarose gel
Experimental: Candesartan cilexetil or ethidium bromide was incubated with 1.5 nmol of double-stranded DNA ladder for 15 min at room temperature in the buffer containing 50 mM Tris-HCl, pH 8.0, 0.01% Tween-20, 1 mM DTT, and 40 mM NaCl. The reaction mixtures were run on 1% agarose gel and stained with ethidium bromide (0.5 µg/ml) for visualization.
Figure 7 The non-DNA-intercalating property of candesartan cilexetil. Candesartan cilexetil or ethidium bromide was incubated with double-stranded DNA ladder, and the reaction products were run on 1% agarose gel and stained with ethidium bromide. Lane 1: No compound. Lane 2: 0.75 nmol of candesartan cilexetil was incubated with 1.5 nmol DNA. Lane 3: 3 nmol of candesartan cilexetil was incubated with 1.5 nmol DNA. Lane 4: 0.75 nmol of ethidium bromide was incubated with 1.5 nmol DNA. Lane 5: 3 nmol of ethidium bromide was incubated with 1.5 nmol DNA.

Compound: C/C=C/c1occ(C(=O)c2c(OC)cc(OC)cc2C(=O)OC)c(=O)c1OC [3-O-methylfunicone]
- IC50 (pol κ): 12.5 µM

Compound: C/C=C/C(=O)C1=C(OC)OC(C)(/C=C/C=C/C(C)O)C1=O (stereo not drawn) [Penicilliol A]
- IC50 (mouse pol ι): 19.8 µM

Compound: O=C(OC[C@H]1O[C@@H](OC(=O)c2cc(O)c(O)c(O)c2)[C@H](OC(=O)c2cc(O)c(O)c(O)c2)[C@@H](OC(=O)c2cc(O)c(O)c(O)c2)[C@@H]1OC(=O)c1cc(O)c(O)c(O)c1)c1cc(O)c(O)c(O)c1 [penta-1,2,3,4,6-O-galloyl-beta-D-glucose]
- IC50 (pol κ): 0.03 µM
- IC50 (pol α): 0.013 µM

Compound: CC1=C(CC/C(C)=C/CCC2=CC[C@H](C3=CC(=O)O[C@H]3O)O[C@H]2O)C(C)(C)CCC1 [manoalide]
- IC50 [1]: 9.5 µM
- IC50 (Human pol κ [2]): 3.4 ± 0.9 µM
- IC50 (Human pol κ [3]): 5.6 ± 0.9 µM
- Effect on UV-induced cytotoxicity (XP30RO cells (XP-V)): failed to enhance UV toxicity

Compound: CCCCCCCCCCCC(=O)Oc1cccc2c1C(=O)C=CC2=O [C12:0-Acyl juglone]
- IC50 (pol κ): 6.8 µM

- IC50 ([1]; fluorescence strand displacement, 10 nM pol κ, 50 nM substrate, 100 µM dTTP, read-out: qHTS: IC50): 30 µM
- IC50 (Human pol κ [3]; primer extension, adducted DNA, 0.25 nM pol κ, average ± standard error, three experiments, read-out: gel: ring-opened reduced form of γ-HOPdG: IC50): 14 ± 0.9 µM
Compound: CC(C)c1ccc2c(c1)c(SC(C)(C)C)c(CC(C)(C)C(=O)O)n2Cc1ccc(Cl)cc1 [MK-886]
- IC50 (Human pol κ [2]; primer extension, non-damaged DNA, 0.25 nM pol κ, average ± standard error, three experiments, read-out: gel: non-damaged: IC50): 13 ± 1.7 µM
- Effect on UV-induced cytotoxicity (XP30RO cells (XP-V)): failed to enhance UV toxicity

Compound: COC1=C(C(=O)CC(C)O)C(=O)C(C)(/C=C/C=C/C(C)O)O1 (stereo not drawn) [Penicilliol B]
- IC50 (mouse pol ι): 32.5 µM

Compound: C18:1-Acyl juglone
- IC50 (pol κ): 8.1 µM

Compound: CC1(C)[C@@H](O)CC[C@]2(C)[C@H]3C(=O)C=C4[C@@H]5C[C@@](C)(C(=O)O)CC[C@]5(C)CC[C@@]4(C)[C@]3(C)CC[C@@H]12 [Glycyrrhetinic acid]
- IC50 (pol κ): 15.8 µM

Compound: CC[n+]1c(-c2ccccc2)c2cc(N)ccc2c2ccc(N)cc21 [ethidium bromide]
- DNA migration pattern (intercalation) [4]: bands shifted upwards

Compound: CC1=CC[C@H]2C(C)(C)CCC[C@]2(C)[C@H]1CCCCCCCCCCCCCCCCC(=O)O (relative stereo) [(1S*,4aS*,8aS*)-17-(1,4,4a,5,6,7,8,8a-octahydro-2,5,5,8a-tetramethylnaphthalen-1-yl)heptadecanoic acid]
- IC50 (pol κ): 7.2 µM
